Converted amounts (≈) assume the structure as drawn.
Key:
E. coli ATCC 25922 = test: MIC, E. coli ATCC 25922; format: cell-based; conditions: Alamar Blue read after overnight incubation at 35° C.; for MIC Ec: E. coli; for MIC: Escherichia coli, ATCC25922, E. coli
S. aureus ATCC 13709 = test: MIC, S. aureus ATCC 13709 (Alamar Blue broth microdilution); format: cell-based; conditions: Alamar Blue read after overnight incubation at 35° C.; for MIC Sa: S. aureus; for MIC: Staphylococcus aureus, ATCC13709, S. aureus

Row | Structure (SMILES) | MIC Ec (E. coli ATCC 25922) | MIC Sa (S. aureus ATCC 13709) | MIC (E. coli ATCC 25922) | MIC (S. aureus ATCC 13709)
1 | CNc1cc(F)cc2c1[nH]c1nc(Oc3cnc(C)nc3)nc(N3C[C@H]4CCC(N)[C@@]4(C)C3)c12 (some centres unmarked) [4.099] | 4 µg/mL (≈ 8.65 µM) | ≤0.5 µg/mL | – | –
2 | CNc1cc(F)cc2c1[nH]c1nc(Oc3cnc(C)nc3)nc(N3CC4(CCC4N)C3)c12 (centres unmarked) [4.100] | ≤0.5 µg/mL | ≤0.5 µg/mL | – | –
3 | CNc1cc(F)cc2c1[nH]c1nc(Oc3cnc(C)nc3)nc(N3CCCC4(CC4N)C3)c12 (centres unmarked) [4.101] | ≤0.5 µg/mL | ≤0.5 µg/mL | – | –
4 | CNc1cc(F)cc2c1[nH]c1nc(Oc3cnc(C)nc3)nc(N3CC4CCC(N)C4C3)c12 (centres unmarked) [4.102] | 2 µg/mL (≈ 4.46 µM) | ≤0.5 µg/mL | – | –
5 | CNc1cc(F)cc2c1[nH]c1nc(Oc3cnc(C)nc3)nc(N3CC4CC(N)CC4C3)c12 (centres unmarked) [4.104] | ≤0.5 µg/mL | ≤0.5 µg/mL | – | –
6 | CNc1cc(F)cc2c1[nH]c1nc(Oc3cnc(C)nc3)nc(N3CC4C(CN)C4C3)c12 (centres unmarked) [4.106] | 2 µg/mL (≈ 4.6 µM) | ≤0.5 µg/mL | – | –
7 | CNc1cc(F)cc2c1[nH]c1nc(Oc3cnc(C)nc3)nc(N3CCC4(CC3)NC(=O)NC4=O)c12 [4.107] | >16 µg/mL | >16 µg/mL | – | –
8 | CNc1cc(F)cc2c1[nH]c1nc(Oc3cnc(C)nc3)nc(NCCCN)c12 [4.108] | >16 µg/mL | 4 µg/mL (≈ 10.1 µM) | – | –
9 | CNc1cc(F)cc2c1[nH]c1nc(Oc3cnc(C)nc3)nc(NC3CCCC[C@@H]3N)c12 (some centres unmarked) [4.109] | 1 µg/mL (≈ 2.29 µM) | ≤0.5 µg/mL | – | –
10 | CNc1cc(F)cc2c1[nH]c1nc(Oc3cnc(C)nc3)nc(N3CC4CC(N)C4C3)c12 (centres unmarked) [4.110] | ≤0.5 µg/mL | ≤0.5 µg/mL | – | –
11 | CNc1cc(F)cc2c1[nH]c1nc(Oc3cnc(C)nc3)nc(N3CC4CC(N)C4C3)c12 (centres unmarked) [4.111] | ≤0.5 µg/mL | ≤0.5 µg/mL | – | –
12 | CNc1cc(F)cc2c1[nH]c1nc(Oc3cnc(C)nc3)nc(N3CC4CCC(CN)C4C3)c12 (centres unmarked) [4.112] | 1 µg/mL (≈ 2.16 µM) | ≤0.5 µg/mL | – | –
13 | CNc1cc(F)cc2c1[nH]c1nc(Oc3cnc(C)nc3)nc(N3CC4NCCOC4C3)c12 (centres unmarked) [4.114] | 2 µg/mL (≈ 4.44 µM) | ≤0.5 µg/mL | – | –
14 | CNc1cc(F)cc2c1[nH]c1nc(Oc3cnc(C)nc3)nc(N3CC(N)CC3C)c12 (centres unmarked) [4.115] | 8 µg/mL (≈ 18.9 µM) | 1 µg/mL (≈ 2.37 µM) | – | –
15 | CNc1cc(F)cc2c1[nH]c1nc(Oc3cnc(C)nc3)nc(N3CC4CCNC4(C)C3)c12 (centres unmarked) [4.116] | ≤0.5 µg/mL | ≤0.5 µg/mL | – | –
16 | CNc1cc(F)cc2c1[nH]c1nc(Oc3cnc(C)nc3)nc(N3CC4(CCCN4)C3)c12 [4.119] | 2 µg/mL (≈ 4.6 µM) | ≤0.5 µg/mL | – | –
17 | CNc1cc(F)cc2c1[nH]c1nc(Oc3cnc(C)nc3)nc(N3CC4(CCN4)C3)c12 [4.120] | 1 µg/mL (≈ 2.38 µM) | ≤0.5 µg/mL | – | –
18 | CNc1cc(F)cc2c1[nH]c1nc(Oc3cnc(C)nc3)nc(N3CC4CONC4C3)c12 (centres unmarked) [4.122] | 1 µg/mL (≈ 2.29 µM) | ≤0.5 µg/mL | – | –
19 | CNc1cc(F)cc2c1[nH]c1nc(Oc3cnc(C)nc3)nc(N3CC4CCC(N)C3C4)c12 (centres unmarked) [4.123] | >16 µg/mL | 16 µg/mL (≈ 35.7 µM) | – | –
20 | CNc1cc(F)cc2c1[nH]c1nc(Oc3cnc(C)nc3)nc(N3CC(NC(=O)C(N)CO)C4(CC4)C3)c12 (centres unmarked) [4.124] | 8 µg/mL (≈ 15.3 µM) | ≤0.5 µg/mL | – | –
21 | CNc1cc(F)cc2c1[nH]c1nc(Oc3cnc(C)nc3)nc(N3CCC4(CNC4)C3)c12 [4.125] | 4 µg/mL (≈ 9.21 µM) | ≤0.5 µg/mL | – | –
22 | CNc1cc(F)cc2c1[nH]c1nc(Oc3cnc(C)nc3)nc(N3CCC4(CCNC4)C3)c12 (centres unmarked) [4.126] | 2 µg/mL (≈ 4.46 µM) | ≤0.5 µg/mL | – | –
23 | CNc1cc(F)cc2c1[nH]c1nc(Oc3cnc(C)nc3)nc(N3CC(NC(=O)CNC(=O)C(N)CO)C4(CC4)C3)c12 (centres unmarked) [4.127] | >16 µg/mL | 8 µg/mL (≈ 13.8 µM) | – | –
24 | CNc1cc(F)cc2c1[nH]c1nc(Oc3cnc(C)nc3)nc(N3CC4CC3CC4N)c12 (centres unmarked) [4.128] | 4 µg/mL (≈ 9.21 µM) | ≤0.5 µg/mL | – | –
25 | CNc1cc(F)cc2c1[nH]c1nc(Oc3cnc(C)nc3)nc(N3CC4CC3CC4N)c12 (centres unmarked) [4.129] | ≤0.5 µg/mL | ≤0.5 µg/mL | – | –
26 | CNc1cc(F)cc2c1[nH]c1nc(Oc3cnc(C)nc3)nc(N3CC4CC3CC4N)c12 (centres unmarked) [4.130] | ≤0.5 µg/mL | ≤0.5 µg/mL | – | –

Row | Structure (SMILES) | MIC Ec (E. coli ATCC 25922) | MIC Sa (S. aureus ATCC 13709) | MIC (E. coli ATCC 25922) | MIC (S. aureus ATCC 13709)
27 | CNc1cc(F)cc2c1[nH]c1nc(Oc3cnc(C)nc3)nc(N3CCNC4(CC4)C3)c12 [4.132] | 2 µg/mL (≈ 4.6 µM) | ≤0.5 µg/mL | – | –
28 | CNc1cc(F)cc2c1[nH]c1nc(Oc3cnc(C)nc3)nc(N3CCNCC34CC4)c12 [4.133] | >16 µg/mL | >16 µg/mL | – | –
29 | CNc1cc(F)cc2c1[nH]c1nc(Oc3cnc(C)nc3)nc(N(C)C3CNC3)c12 [4.134] | >16 µg/mL | >16 µg/mL | – | –
30 | CNc1cc(F)cc2c1[nH]c1nc(Oc3cnc(C)nc3)nc(N3CCC(C)(N)CC3)c12 [4.135] | 1 µg/mL (≈ 2.29 µM) | ≤0.5 µg/mL | – | –
31 | CNc1cc(F)cc2c1[nH]c1nc(Oc3cnc(C)nc3)nc(N3C[C@H](N)[C@@H](O)C3)c12 [4.136] | 8 µg/mL (≈ 18.8 µM) | 2 µg/mL (≈ 4.71 µM) | – | –
32 | CNc1cc(F)cc2c1[nH]c1nc(Oc3cnc(C)nc3)nc(N3CC(N)C(F)C3)c12 (centres unmarked) [4.137] | 1 µg/mL (≈ 2.35 µM) | ≤0.5 µg/mL | – | –
33 | CNc1cc(F)cc2c1[nH]c1nc(Oc3cnc(C)nc3)nc(N3CC(N)C3)c12 [4.138] | ≤0.5 µg/mL | ≤0.5 µg/mL | – | –
34 | CNc1cc(F)cc2c1[nH]c1nc(Oc3cnc(C)nc3)nc(N3CCC4(CCC4N)CC3)c12 (centres unmarked) [4.139] | ≤0.5 µg/mL | ≤0.5 µg/mL | – | –
35 | CCOC(=O)C1CN(c2nc(Oc3cnc(C)nc3)nc3[nH]c4c(NC)cc(F)cc4c23)CC1N (centres unmarked) [4.140] | 2 µg/mL (≈ 4.16 µM) | ≤0.5 µg/mL | – | –
36 | CNc1cc(F)cc2c1[nH]c1nc(Oc3cnc(C)nc3)nc(N3CC(NC(=O)C(C)N)C4(CC4)C3)c12 (centres unmarked) [4.142] | 1 µg/mL (≈ 1.98 µM) | ≤0.5 µg/mL | – | –
37 | CNc1cc(F)cc2c1[nH]c1nc(Oc3cnc(C)nc3)nc(N3CC(CN)C3)c12 [4.143] | 2 µg/mL (≈ 4.9 µM) | ≤0.5 µg/mL | – | –
38 | CNc1cc(F)cc2c1[nH]c1nc(Oc3cnc(C)nc3)nc(N3CC[C@H](N)[C@@H](F)C3)c12 [4.144] | – | – | 1 µg/mL (≈ 2.27 µM) | ≤ 0.5 µg/mL
39 | CNc1cc(F)cc2c1[nH]c1nc(Oc3cnc(C)nc3)nc(N3CC(NC(=O)C(C)NC(=O)C(C)N)C4(CC4)C3)c12 (centres unmarked) [4.145] | 8 µg/mL (≈ 13.9 µM) | 1 µg/mL (≈ 1.73 µM) | – | –
40 | CNc1cc(F)cc2c1[nH]c1nc(Oc3cnc(C)nc3)nc(N3CC4[C@H](N)C[C@]4(C)C3)c12 (some centres unmarked) [4.146] | – | – | ≤ 0.5 µg/mL | ≤ 0.5 µg/mL
41 | CNc1cc(F)cc2c1[nH]c1nc(Oc3cnc(C)nc3)nc(N3CC4CC(N)C3C4)c12 (centres unmarked) [4.148] | – | – | 4 µg/mL (≈ 9.21 µM) | ≤ 0.5 µg/mL
42 | CNc1cc(F)cc2c1[nH]c1nc(Oc3cnc(C)nc3)nc(N3CC4(CCCNC4)C3)c12 [4.149] | 2 µg/mL (≈ 4.46 µM) | ≤0.5 µg/mL | – | –
43 | CNc1cc(F)cc2c1[nH]c1nc(Oc3cnc(C)nc3)nc(N3CC4C(N)CC4(C)C3)c12 (centres unmarked) [4.150] | 1 µg/mL (≈ 2.23 µM) | ≤0.5 µg/mL | – | –
44 | CNc1cc(F)cc2c1[nH]c1nc(Oc3cnc(C)nc3)nc(N3CCC(N)C(C)(C)C3)c12 (centres unmarked) [4.152] | – | – | 1 µg/mL (≈ 2.22 µM) | ≤ 0.5 µg/mL
45 | CNc1cc(F)cc2c1[nH]c1nc(Oc3cnc(C)nc3)nc(N3CC4(CC(N)C4)C3)c12 [4.153] | 2 µg/mL (≈ 4.6 µM) | ≤0.5 µg/mL | – | –
46 | CNc1cc(F)cc2c1[nH]c1nc(Oc3cnc(C)nc3)nc(N3CC4CC(N)C3C4)c12 (centres unmarked) [4.154] | 16 µg/mL (≈ 36.8 µM) | 2 µg/mL (≈ 4.6 µM) | – | –
47 | CNc1cc(F)cc2c1[nH]c1nc(Oc3cnc(C)nc3)nc(N[C@@H]3CC4CC3CN4)c12 (some centres unmarked) [4.155] | – | – | > 16 µg/mL | 2 µg/mL (≈ 4.6 µM)
48 | CNc1cc(F)cc2c1[nH]c1nc(Oc3cnc(C)nc3)nc(N3C[C@@H]4CCN[C@@H]4C3)c12 [4.156] | – | – | ≤ 0.5 µg/mL | ≤ 0.5 µg/mL
49 | CNc1cc(F)cc2c1[nH]c1nc(Oc3cnc(C)nc3)nc(N3CC(N4CC(N)C4)C3)c12 [4.158] | 4 µg/mL (≈ 8.9 µM) | ≤0.5 µg/mL | – | –
50 | CNc1cc(F)cc2c1[nH]c1nc(Oc3cnc(C)nc3)nc(N3CCC(F)(CN)CC3)c12 [4.159] | – | – | ≤ 0.5 µg/mL | ≤ 0.5 µg/mL
51 | CNc1cc(F)cc2c1[nH]c1nc(Oc3cnc(C)nc3)nc(-c3ccc(Cl)cc3N)c12 [4.161] | ≤0.5 µg/mL | ≤0.5 µg/mL | – | –
52 | CNc1cc(F)cc2c1[nH]c1nc(Oc3cnc(C)nc3)nc(C3=CCNCC3)c12 [4.162] | >16 µg/mL | 8 µg/mL (≈ 19.7 µM) | – | –
